Results on one compound are retold here after patent US8080660B2, “Metal complex glycogen synthase kinase 3 inhibitors” (The Trustees Of The University Of Pennsylvania, priority 2004, dated 2011).

One may read the IC50 as the concentration that gives 50% inhibition. Read a high IC50 as a need for much substance.

The assay concerns the target T1, GSK-3α (Homo sapiens, UniProt P49840).
T1 construct: purchased Upstate Biotechnology USA
The assay can be described thus: GSK-3α kinase inhibition assay ([γ-32P]ATP phosphorylation of substrate). Format: biochemical. As to conditions: 20 μM ATP.

T1 sequence (P49840 whole entry): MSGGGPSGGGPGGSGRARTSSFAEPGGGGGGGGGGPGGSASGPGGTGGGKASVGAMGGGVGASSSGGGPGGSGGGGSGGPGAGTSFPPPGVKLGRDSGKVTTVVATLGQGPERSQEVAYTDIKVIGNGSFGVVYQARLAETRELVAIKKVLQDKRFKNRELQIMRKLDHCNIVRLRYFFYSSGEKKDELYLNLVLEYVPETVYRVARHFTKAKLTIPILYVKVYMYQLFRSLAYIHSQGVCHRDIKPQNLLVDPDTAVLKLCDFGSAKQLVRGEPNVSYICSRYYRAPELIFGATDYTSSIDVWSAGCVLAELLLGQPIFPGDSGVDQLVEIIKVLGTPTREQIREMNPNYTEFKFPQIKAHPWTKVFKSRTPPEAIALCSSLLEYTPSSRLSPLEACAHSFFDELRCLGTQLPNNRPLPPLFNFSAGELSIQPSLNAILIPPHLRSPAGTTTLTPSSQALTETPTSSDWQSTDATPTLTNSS
Protocol: Protein kinases and substrates were purchased from Upstate Biotechnology USA, except for poly(Glu-Tyr 4:1) which was obtained from Sigma-Aldrich.
After 15 mins, the reaction was initiated by adding ATP to a final concentration of 20 μM, including approximately 0.04 μCi/μl [γ-^32P]ATP. Reactions were performed in a total volume of 25 μl. After 30 min, the reaction was terminated by spotting 17.5 μl on a circular P81 phosphocellulose paper (diameter 2.1 cm, Whatman) followed by washing four times (five minutes each wash) with 0.75% phosphoric acid and once with acetone. The dried P81 papers were transferred to a scintillation vial and 5 ml of scintillation cocktail were added and the counts per minute (CPM) determined with a Beckmann 6000 scintillation counter.

As to `O=C1NC(=O)c2c1c1cccnc1c1[nH]c3ccccc3c21` [Compound 4], the IC50 stood at 50 µM.
